According to patent publication US6737383B1, “Herbicidal oxadiazolidines” (priority 1999, dated 2004):

Experiments:
bedstraw = test: Test B pre/postemergence bedstraw; format: in vivo, Galium aparine
How it was run: (§1)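 Test chemicals in a non-phytotoxic solvent mixture with surfactant were sprayed preemergence onto planted seeds and postemergence onto plants 2 to 18 cm tall (1- to 4-leaf stage). After twelve to sixteen days in a greenhouse, injury was visually rated against untreated controls from 0 (no effect) to 10 (complete control).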

blackgrass = test: Test B pre/postemergence blackgrass; format: in vivo, Alopecurus myosuroides
How it was run: as §1

surinam grass = test: Test B pre/postemergence surinam grass; format: in vivo, Brachiaria decumbens
How it was run: as §1

cocklebur = test: Test B pre/postemergence cocklebur; format: in vivo, Xanthium strumarium
How it was run: as §1

corn = test: Test B pre/postemergence corn; format: in vivo, Zea mays
How it was run: as §1

morningglory = test: Test B pre/postemergence morningglory; format: in vivo, Ipomoea hederacea
How it was run: as §1

pigweed = test: Test B pre/postemergence pigweed; format: in vivo, Amaranthus retroflexus
How it was run: as §1

rape = test: Test B pre/postemergence rape; format: in vivo, Brassica napus
How it was run: as §1

soybean = test: Test B pre/postemergence soybean; format: in vivo, Glycine max
How it was run: as §1

sugar beet = test: Test B pre/postemergence sugar beet; format: in vivo, Beta vulgaris
How it was run: as §1

velvetleaf = test: Test B pre/postemergence velvetleaf; format: in vivo, Abutilon theophrasti
How it was run: as §1

wild oat = test: Test B pre/postemergence wild oat; format: in vivo, Avena fatua
How it was run: as §1

purple nutsedge = test: Test B pre/postemergence purple nutsedge; format: in vivo, Cyperus rotundus
How it was run: as §1

rice = test: Test B flood test rice; format: in vivo, Oryza sativa
How it was run: (§2)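 Plants were grown to the 2-leaf stage before treatment with test chemical, then held in a greenhouse for twelve to sixteen days. Injury was visually rated against untreated controls on a 0–10 scale, where 0 is no effect and 10 is complete control.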

smallflower flatsedge = test: Test B flood test smallflower flatsedge; format: in vivo, Cyperus difformis
How it was run: as §2

bamyardgrass = test: Test B flood test barnyardgrass; format: in vivo, Echinochloa crus-galli
How it was run: as §2

[1] = Preemergence, Rate 62 g/ha, scale of 0 to 10 where 0 is no effect and 10 is complete control
[2] = Preemergence, Rate 250 g/ha, scale of 0 to 10 where 0 is no effect and 10 is complete control
[3] = Preemergence, Rate 500 g/ha, scale of 0 to 10 where 0 is no effect and 10 is complete control
[4] = Rate 62 g/ha, Postemergence, scale 0 to 10, 0 no effect, 10 complete control
[5] = Rate 125 g/ha, Postemergence, scale of 0 to 10 where 0 is no effect and 10 is complete control
[6] = Rate 250 g/ha, Postemergence, scale of 0 to 10 where 0 is no effect and 10 is complete control
[7] = Rate 500 g/ha, Postemergence, scale 0 to 10, 0 no effect, 10 complete control
[8] = Rate 62 g/ha, headed Pre-emergence (flood test species), scale 0 to 10 (0 no effect, 10 complete control)
[9] = Rate 125 g/ha, Pre-emergence, flood test species, scale 0 to 10 where 0 is no effect and 10 is complete control
[10] = Rate 250 g/ha, Pre-emergence, flood-test species, scale 0 to 10, 0 is no effect, 10 is complete control
[11] = Rate 500 g/ha, Pre-emergence, flood test species, scale 0 to 10 (0 no effect, 10 complete control)

Cc1ccccc1-n1c(=O)on(C(=O)N(c2ccncc2)C(C)C)c1=O [Compound 301]
0: Bedstraw plant response rating (bedstraw; [1]) | Bedstraw plant response rating (0 to 10 scale) (bedstraw; Preemergence, Rate 125 g/ha) | Bedstraw plant response rating (bedstraw; [2]) | Bedstraw plant response rating (bedstraw; [3]) | Bedstraw plant response rating (bedstraw; [4]) | Bedstraw plant response rating (bedstraw; [5]) | Blackgrass plant response rating (blackgrass; [1]) | Blackgrass plant response rating (0 to 10 scale) (blackgrass; Preemergence, Rate 125 g/ha) | Blackgrass plant response rating (blackgrass; [2]) | Blackgrass plant response rating (blackgrass; [3]) | Blackgrass plant response rating (blackgrass; [4]) | Blackgrass plant response rating (blackgrass; [5]) | Plant response rating, Blackgrass (blackgrass; [6]) | Blackgrass plant response rating (blackgrass; [7]) | B. signalgrass plant response rating (surinam grass; [1]) | B. signalgrass plant response rating (0 to 10 scale, 0 is no effect, 10 is complete control) (surinam grass; Preemergence, Rate 125 g/ha) | B. signalgrass plant response rating (surinam grass; [2]) | B. signalgrass plant response rating (surinam grass; [3]) | B. signalgrass plant response rating (surinam grass; [4]) | B. signalgrass plant response rating (surinam grass; [5]) | Plant response rating, B. signalgrass (surinam grass; [6]) | B. signalgrass plant response rating (surinam grass; [7]) | Cocklebur plant response rating (cocklebur; [1]) | Cocklebur plant response rating (0 to 10 scale) (cocklebur; Preemergence, Rate 125 g/ha) | Cocklebur plant response rating (cocklebur; [2]) | Cocklebur plant response rating (cocklebur; [4]) | Cocklebur plant response rating (cocklebur; [5]) | Plant response rating, Cocklebur (cocklebur; [6]) | Cocklebur plant response rating (cocklebur; [7]) | Corn plant response rating (corn; [1]) | Corn plant response rating (0 to 10 scale) (corn; Preemergence, Rate 125 g/ha) | Corn plant response rating (corn; [2]) | Corn plant response rating (corn; [3]) | Corn plant response rating (corn; [4]) | Corn plant response rating (corn; [5]) | Plant response rating, Corn (corn; [6]) | Corn plant response rating (corn; [7]) | Morningglory plant response rating (morningglory; [1]) | Morningglory plant response rating (0 to 10 scale) (morningglory; Preemergence, Rate 125 g/ha) | Morningglory plant response rating (morningglory; [2]) | Morningglory plant response rating (morningglory; [3]) | Morningglory plant response rating (morningglory; [4]) | Morningglory plant response rating (morningglory; [5]) | Plant response rating, Morningglory (morningglory; [6]) | Redroot pigweed plant response rating (pigweed; [1]) | Redroot pigweed plant response rating (0 to 10 scale) (pigweed; Preemergence, Rate 125 g/ha) | Redroot pigweed plant response rating (pigweed; [2]) | Redroot pigweed plant response rating (pigweed; [3]) | Redroot pigweed plant response rating (pigweed; [4]) | Redroot pigweed plant response rating (pigweed; [5]) | Plant response rating, Redroot pigweed (pigweed; [6]) | Rape plant response rating (rape; [1]) | Rape plant response rating (0 to 10 scale) (rape; Preemergence, Rate 125 g/ha) | Rape plant response rating (rape; [2]) | Rape plant response rating (rape; [3]) | Rape plant response rating (rape; [4]) | Rape plant response rating (rape; [5]) | Plant response rating, Rape (rape; [6]) | Soybean plant response rating (soybean; [1]) | Soybean plant response rating (0 to 10 scale) (soybean; Preemergence, Rate 125 g/ha) | Soybean plant response rating (soybean; [2]) | Soybean plant response rating (soybean; [3]) | Soybean plant response rating (soybean; [4]) | Soybean plant response rating (soybean; [5]) | Plant response rating, Soybean (soybean; [6]) | Sugarbeets plant response rating (sugar beet; [1]) | Sugarbeets plant response rating (0 to 10 scale) (sugar beet; Preemergence, Rate 125 g/ha) | Sugarbeets plant response rating (sugar beet; [2]) | Sugarbeets plant response rating (sugar beet; [3]) | Sugarbeets plant response rating (sugar beet; [4]) | Sugarbeets plant response rating (sugar beet; [5]) | Plant response rating, Sugarbeets (sugar beet; [6]) | Velvetleaf plant response rating (velvetleaf; [1]) | Velvetleaf plant response rating (0 to 10 scale) (velvetleaf; Preemergence, Rate 125 g/ha) | Velvetleaf plant response rating (velvetleaf; [2]) | Velvetleaf plant response rating (velvetleaf; [3]) | Velvetleaf plant response rating (velvetleaf; [4]) | Velvetleaf plant response rating (velvetleaf; [5]) | Plant response rating, Velvetleaf (velvetleaf; [6]) | Wild oats plant response rating (wild oat; [1]) | Wild oats plant response rating (0 to 10 scale) (wild oat; Preemergence, Rate 125 g/ha) | Wild oats plant response rating (wild oat; [2]) | Wild oats plant response rating (wild oat; [3]) | Wild oats plant response rating (wild oat; [4]) | Wild oats plant response rating (wild oat; [5]) | Plant response rating, Wild oats (wild oat; [6]) | Nutsedge plant response rating (purple nutsedge; [1]) | Nutsedge plant response rating (0 to 10 scale) (purple nutsedge; Preemergence, Rate 125 g/ha) | Nutsedge plant response rating (purple nutsedge; [2]) | Nutsedge plant response rating (purple nutsedge; [3]) | Nutsedge plant response rating (purple nutsedge; [4]) | Nutsedge plant response rating (purple nutsedge; [5]) | Plant response rating, Nutsedge (purple nutsedge; [6]) | Rice plant response rating (rice; [8]) | Rice plant response rating (rice; [9]) | Rice plant response rating (rice; [10]) | Rice plant response rating (rice; [11]) | S. Flatsedge plant response rating (smallflower flatsedge; [8]) | S. Flatsedge plant response rating (smallflower flatsedge; [9]) | S. Flatsedge plant response rating (smallflower flatsedge; [10]) | S. Flatsedge plant response rating (smallflower flatsedge; [11]) | Barnyardgrass plant response rating (bamyardgrass; [8]) | Barnyardgrass plant response rating (bamyardgrass; [9]) | Barnyardgrass plant response rating (bamyardgrass; [10]) | Barnyardgrass plant response rating (bamyardgrass; [11])
